Measurements taken from patent publication US20190256822A1, “HEPATIC CELL LINE RESISTANT TO DIMETHYL SULFOXIDE, CELL CULTURE AND USES THEREOF” (Academisch Medisch Centrum, priority 2016, published 2019).
Each block holds one compound with its values, some of them ahead of it.

Columns and labels:
[1] = test system: HepaRG+/-CAR monolayer cultures
Experimental: At the 0 h time point the cells were incubated for 5 s to correct for non-specific binding of the added compounds to the cells and the culture plate. Medium samples of the indicated time points were immediately frozen at −80° C. Prior to HPLC analysis samples were thawed on ice and deproteinized with the addition of 4 volumes of acetonitrile (for prednisolone and theophylline), vacuum evaporated and dissolved in water. Warfarin samples were instead deproteinized with 2 volumes of methanol and spun down for 5 minutes at 20000 g at 4° C. Supernatants were used for HPLC analysis.
Reverse-phase HPLC detection was done as follows. Deproteinized samples (100 μl for prednisolone and theophylline, 30 μl for warfarin) were applied to a Hypersil C18, 3 μm, 15 cm HPLC column (Thermo Scientific). Starting eluent consisted of 6.8 mM ammoniumformate (pH 3.9), followed by several steps of linear gradients to different concentrations of acetonitrile (ACN) (Biosolve, Valkenswaard, The Netherlands). […] Detection of prednisolone was performed at λabs=254 nm, theophylline at λabs=270 nm, warfarin at λexc=310 nm/λem=390 nm. Quantification was done by using calibration curves of prednisolone, theophylline, or warfarin.

HepaRG cells [2] = experiment: Lactate production after culture with DMSO; assay type: cell-based, human
Experimental: The cultures were washed twice with PBS and then exposed to phenol-red free HepaRG culture medium with 1.5 mM ^15NH4Cl (Sigma), 2.27 mM D-galactose (Sigma), and 2 mM L-lactate (Sigma) without DMSO. Medium samples were taken after 45 min, 8 and 24 hours of incubation. Production or elimination rates were established by calculating the concentration changes of different compounds, as indicated below, in the test media in time, and were corrected for protein content per well.

HepaRG cells [3] = conditions: human, 14 days, 1.7 %
Experimental: For testing, the cells were fully matured during 28 days in 12- or 24-well culture plates. […] For testing the effect of CAR overexpression HepaRG and HepaRG-CAR cultures of similar passage (±1 passage) were compared, between passage 15-19.
(§4) Protein levels of cell cultures were assessed with the Bio-Rad Protein Assay (Bio-Rad, Hercules, Calif.) according to manufacturer's instructions after lysis in 0.2 M NaOH for 1 h at 37° C.

HepaRG cells [4] = experiment: Mitochondrial content (mitochondrial to nuclear DNA ratio) after culture with DMSO; assay type: cell-based, human; conditions: vs cells not cultured in presence of DMSO
Description: (§1) To assess the cellular mitochondrial content the inventors determined the mitochondrial/nuclear DNA ratio. Total DNA was isolated with the QIAamp DNA Mini Blood kit (QIAgen) according to manufacturer's instructions.
(§2) For a list of PCR-primers used, see supplementary table 1.

HepG2 cells [5] = experiment: as above; assay type: cell-based, human; conditions: HepG2-CAR cultured with DMSO vs HepG2-CAR without DMSO
Description: as §1, §2

HepaRG monolayers = conditions: cited from earlier work
HepG2 cells [6] = conditions: human, 1.7 %
Experimental: HepG2 cells were maintained in T75 flasks until 80-90% confluency after which they were propagated in new flasks. The cells were propagated similarly as HepaRG cells. HepG2 cells were seeded at a 1:3-1:4 ratio in 12 or 24 well plates.
as §4

CAR mRNA = CAR mRNA levels after culture with DMSO; assay type: cell-based, human
Experimental: (§3) RT-qPCR measurements were performed on a Lightcycler 480 (Roche) with Sensifast SYBR Green master mix (Bioline) according to manufacturer's instructions. […] Normalized mRNA levels are expressed as a percentage of the mean mRNA levels of two human liver samples normalized to 18S rRNA. The human liver samples were obtained from two female patients with liver adenoma and no elevated liver damage. […] The samples were taken after obtaining written informed consent and the procedure was approved by the Academic Medical Center's committee on human experimentation (protocol number 03/024).

AHR target gene CYP1A2 = conditions: 24 h, 40 μM
Experimental: as §3
Transcript levels of CYP genes were compared in cultures with and without induction.

CAR target gene CYP2B6 = experiment: CYP induction: CYP2B6 transcript levels after CITCO (CAR inducer); assay type: cell-based, human

clearance rate in HepaRG-CAR cultured with DMSO compared to all other conditions [1]: cleared at an increased rate
SMILES: C[C@]12C=CC(=O)C=C1CC[C@@H]1[C@@H]2[C@@H](O)C[C@@]2(C)[C@H]1CC[C@]2(O)C(=O)CO [prednisolone]

reduction of protein content (HepaRG cells [3]): 40%
reduction of total protein content (HepaRG cells [3]): 19%
reduction of total protein content (HepG2 cells [6]): 15%-18
SMILES: C[S+](C)[O-] [DMSO, dimethyl sulfoxide]
reduction of lactate production (HepaRG cells [2]; HepaRG-CAR monolayer cultured with DMSO vs control cells without DMSO): 92%
reduction of lactate production (HepaRG cells [2]; control HepaRG monolayer cultured with DMSO vs control cells without DMSO): 57%
increase of mitochondrial to nuclear DNA ratio (HepaRG cells [4]; HepaRG-CAR monolayer): 2 ×
increase of mitochondrial to nuclear DNA ratio (HepaRG cells [4]; unmodified HepaRG monolayer): 1.8 ×
increase of mitochondrial to nuclear DNA ratio (HepG2 cells [5]): 1.3 ×
increase of cell leakage (HepaRG monolayers): 3- to 4 fold
reduction of total cellular protein content (HepaRG monolayers): more than 50%
CAR mRNA level, of human liver (CAR mRNA; control HepaRG cells cultured with DMSO (5.3% without)): 15%
CAR mRNA level, of human liver (CAR mRNA; modified HepaRG cells cultured with DMSO (108% without)): 208%

clearance [1]: could not reliably observe any clearance
SMILES: Cn1c(=O)c2[nH]cnc2n(C)c1=O [theophylline, theophylline anhydrous]

total CYP1A2 mRNA level after induction, of human liver (AHR target gene CYP1A2): ≤ 31%
total CYP1A2 transcript level after induction, of human liver (AHR target gene CYP1A2): ≤ 23%
SMILES: COc1ccc2[nH]c([S+]([O-])Cc3ncc(C)c(OC)c3C)nc2c1 (centres unmarked) [omeprazole]

clearance rate in HepaRG-CAR cultured with DMSO compared to all other conditions [1]: cleared at an increased rate
period of linear clearance ([1]; human, 1 μM): 24 to 48 h
SMILES: CC(=O)CC(c1ccccc1)c1c(O)c2ccccc2oc1=O (centres unmarked) [warfarin]

fold induction of CYP2B6 transcript (CAR target gene CYP2B6; CITCO 1 μM, 24 h, control and modified HepaRG monolayers, independent of DMSO treatment): 4.2-6.1 ×
fold induction of CYP2B6 transcript (CAR target gene CYP2B6; control HepaRG BALIAD culture without DMSO, CITCO 24 h): 6.5 ×
fold induction of CYP2B6 transcript (CAR target gene CYP2B6; modified HepaRG BALIAD culture without DMSO, CITCO 24 h): 3.6 ×
total CYP2B6 mRNA level after induction, of human liver (CAR target gene CYP2B6; modified HepaRG BALIAD, CITCO 24 h): ≤ 1023%
total CYP2B6 transcript level after induction, of human liver (CAR target gene CYP2B6; modified HepaRG monolayer, CITCO 24 h): ≤ 430%
SMILES: Clc1ccc(-c2nc3sccn3c2/C=N/OCc2ccc(Cl)c(Cl)c2)cc1 [CITCO]
